# “And” between values parts separate entries of the source, which are not always exact repeats. Equal values may be shown once.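 Values below derive from 48-hour exposures of cells grown in 96-well plates, with endpoints linearly interpolated between the two concentrations bracketing the appropriate inhibition level. The concentration for 50% growth inhibition is given as GI50. TGI: concentration producing complete growth inhibition.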
# Experiments:
# Test in all cases: growth of human tumour cells (NCI), 48 h
# MOLT-4 leukemia = system: MOLT-4 leukemia
# OVCAR-5 ovarian = system: OVCAR-5 ovarian
# HCT-116 colon = system: HCT-116 colon
# SF-295 CNS = system: SF-295 CNS
# MALME-3M melanoma = system: MALME-3M melanoma
# 786-0 renal = system: 786-0 renal
# HOP-92 NSCLC = system: HOP-92 NSCLC
# SK-OV-3 ovarian = system: SK-OV-3 ovarian
# HCT-15 colon = system: HCT-15 colon
smiles,measurement,setting,value
CC12CCCC(C#N)(C1)OC2=O (stereo unspecified),TGI,MOLT-4 leukemia,> 100 µM
same,TGI,OVCAR-5 ovarian,> 100 µM
same,TGI,HCT-116 colon,> 100 µM
same,TGI,SF-295 CNS,> 100 µM
same,TGI,MALME-3M melanoma,> 100 µM
same,TGI,786-0 renal,> 100 µM
same,TGI,HOP-92 NSCLC,> 100 µM
same,TGI,SK-OV-3 ovarian,> 100 µM
CCc1cccc(C)c1N1C(=O)C(=O)C(c2nc3ccccc3o2)/C(=N/NC(=S)NN)C1=O (stereo unspecified),TGI,OVCAR-5 ovarian,> 100 µM
same,TGI,HCT-116 colon,> 100 µM
same,TGI,SF-295 CNS,> 100 µM
same,TGI,MALME-3M melanoma,> 100 µM
same,TGI,786-0 renal,> 100 µM
same,TGI,HOP-92 NSCLC,> 100 µM
same,TGI,SK-OV-3 ovarian,> 100 µM
same,TGI,HCT-15 colon,> 100 µM
CCC1=C[C@@H]2CN(C1)Cc1c([nH]c3ccccc13)[C@@](C(=O)OC)(c1cc3c(cc1OC)N(C)[C@H]1[C@@](O)(C(=O)OC)[C@H](OC(C)=O)[C@]4(CC)C=CCN5CC[C@]31[C@@H]54)C2,GI50,MOLT-4 leukemia,< 0.01 µM
same,TGI,MOLT-4 leukemia,3.5 µM
same,GI50,OVCAR-5 ovarian,< 0.01 µM
same,TGI,OVCAR-5 ovarian,27.2 µM
same,GI50,HCT-116 colon,< 0.01 µM
same,TGI,HCT-116 colon,> 40.4 µM
same,GI50,SF-295 CNS,< 0.01 µM
same,GI50,MALME-3M melanoma,< 0.01 µM
same,TGI,MALME-3M melanoma,4.92 µM
same,GI50,786-0 renal,< 0.0205 µM
same,TGI,786-0 renal,13 µM
same,GI50,HOP-92 NSCLC,< 0.0471 µM
same,TGI,HOP-92 NSCLC,0.554 µM
same,GI50,SK-OV-3 ovarian,< 0.01 µM
same,TGI,SK-OV-3 ovarian,2.02 µM
same,GI50,HCT-15 colon,0.141 µM
same,TGI,HCT-15 colon,6.8 µM
O=C1C(Cl)=C(Cl)C(=O)N1c1ccccc1Cl,TGI,MOLT-4 leukemia,> 78.5 µM
same,TGI,OVCAR-5 ovarian,> 100 µM
same,TGI,HCT-116 colon,> 100 µM
same,TGI,SF-295 CNS,> 100 µM
same,TGI,MALME-3M melanoma,> 88 µM
same,TGI,786-0 renal,> 100 µM
same,TGI,HOP-92 NSCLC,> 79.4 µM
same,TGI,SK-OV-3 ovarian,> 100 µM
same,TGI,HCT-15 colon,> 88.4 µM
O=C(O)CCC(=O)Oc1ccc(O)c2c1CCCC2=O,TGI,MOLT-4 leukemia,> 100 µM
same,TGI,OVCAR-5 ovarian,> 100 µM
same,TGI,HCT-116 colon,> 100 µM
same,TGI,SF-295 CNS,> 100 µM
same,TGI,MALME-3M melanoma,> 100 µM
same,TGI,786-0 renal,> 100 µM
same,TGI,SK-OV-3 ovarian,> 100 µM
same,TGI,HCT-15 colon,> 100 µM
CCC[CH2][Sn]1([CH2]CCC)[O]C(=O)CN=C(C)c2ccccc2[O]1,GI50,MOLT-4 leukemia,0.74 µM
same,TGI,MOLT-4 leukemia,5.04 µM
same,GI50,OVCAR-5 ovarian,1.81 µM
same,TGI,OVCAR-5 ovarian,3.24 µM
same,GI50,HCT-116 colon,1.55 µM
same,TGI,HCT-116 colon,2.92 µM
same,GI50,SF-295 CNS,1.48 µM
same,TGI,SF-295 CNS,2.86 µM
same,GI50,MALME-3M melanoma,1.04 µM
same,TGI,MALME-3M melanoma,2.3 µM
same,GI50,786-0 renal,1.29 µM
same,TGI,786-0 renal,2.58 µM
same,GI50,HOP-92 NSCLC,0.978 µM
same,TGI,HOP-92 NSCLC,2.18 µM
same,GI50,SK-OV-3 ovarian,2.37 µM
same,TGI,SK-OV-3 ovarian,4.14 µM
same,GI50,HCT-15 colon,1.15 µM
same,TGI,HCT-15 colon,2.46 µM
CN1C(c2ccccc2)CC(C)(O)CC1c1ccccc1 (stereo unspecified),TGI,MOLT-4 leukemia,> 100 µM
same,TGI,OVCAR-5 ovarian,> 100 µM
same,TGI,HCT-116 colon,> 100 µM
same,TGI,SF-295 CNS,> 100 µM
same,TGI,MALME-3M melanoma,> 100 µM
same,TGI,786-0 renal,> 100 µM
same,TGI,HOP-92 NSCLC,> 100 µM
same,TGI,SK-OV-3 ovarian,> 100 µM
same,TGI,HCT-15 colon,> 100 µM
O=C(CC(=O)N1N=C(n2ccc3ccccc32)CC1c1ccccc1)Nc1ccc(Cl)cc1 (stereo unspecified),TGI,MOLT-4 leukemia,> 100 µM
same,TGI,OVCAR-5 ovarian,> 100 µM
same,TGI,HCT-116 colon,> 100 µM
same,TGI,SF-295 CNS,> 100 µM
same,TGI,MALME-3M melanoma,> 100 µM
same,TGI,786-0 renal,> 100 µM
same,TGI,HOP-92 NSCLC,> 100 µM
same,TGI,SK-OV-3 ovarian,> 100 µM
same,TGI,HCT-15 colon,> 100 µM
N#CC(C(=O)/C(=N/NC(=O)c1ccccc1O)C(C#N)c1ccc(Br)cc1)c1ccc(Br)cc1 (stereo unspecified),TGI,MOLT-4 leukemia,44 µM
same,TGI,OVCAR-5 ovarian,29.1 µM
same,TGI,HCT-116 colon,26.6 µM
same,TGI,SF-295 CNS,28.6 µM
same,TGI,MALME-3M melanoma,24.6 µM
same,TGI,786-0 renal,27 µM
same,TGI,HOP-92 NSCLC,31.1 µM
same,TGI,SK-OV-3 ovarian,> 100 µM
same,TGI,HCT-15 colon,25.5 µM
COc1ccc(C2CC(c3ccccc3)=NN2C(=O)c2cc(OC)c(OC)c(OC)c2)cc1O (stereo unspecified),GI50,MOLT-4 leukemia,0.469 µM
same,TGI,MOLT-4 leukemia,16.2 µM
same,GI50,OVCAR-5 ovarian,8.43 µM
same,TGI,OVCAR-5 ovarian,> 65.5 µM
same,GI50,HCT-116 colon,0.313 µM
same,TGI,HCT-116 colon,3.05 µM
same,GI50,SF-295 CNS,0.366 µM
same,TGI,SF-295 CNS,> 38.5 µM
same,GI50,MALME-3M melanoma,41.2 µM
same,TGI,MALME-3M melanoma,> 100 µM
same,GI50,786-0 renal,0.301 µM
same,TGI,786-0 renal,3.86 µM
same,GI50,HOP-92 NSCLC,1.72 µM
same,TGI,HOP-92 NSCLC,33.2 µM
same,GI50,SK-OV-3 ovarian,0.414 µM
same,TGI,SK-OV-3 ovarian,16.6 µM
same,GI50,HCT-15 colon,0.352 µM
same,TGI,HCT-15 colon,40.2 µM
COC(=O)C(=NNc1ccccc1[N+](=O)[O-])C(=O)OC,TGI,MOLT-4 leukemia,> 100 µM
same,TGI,OVCAR-5 ovarian,> 100 µM
same,TGI,HCT-116 colon,> 100 µM
same,TGI,SF-295 CNS,> 100 µM
same,TGI,MALME-3M melanoma,> 100 µM
same,TGI,786-0 renal,> 100 µM
same,TGI,HOP-92 NSCLC,> 100 µM
same,TGI,SK-OV-3 ovarian,> 100 µM
COC(=O)[C@H](Cc1ccccc1)NNC(=O)c1csc([C@@H](C[C@H](C(C)C)N(C)C(=O)[C@@H](NC(=O)[C@H]2CCCCN2C)C2CC2)OC(C)=O)n1,TGI,MOLT-4 leukemia,25 µM and > 100 µM
same,TGI,OVCAR-5 ovarian,25 µM and > 100 µM
same,TGI,HCT-116 colon,25 µM and > 100 µM
same,TGI,SF-295 CNS,25 µM and > 100 µM
same,TGI,MALME-3M melanoma,> 100 µM
same,TGI,786-0 renal,25 µM and > 100 µM
same,GI50,SK-OV-3 ovarian,0.48 µM and 1 µM
same,TGI,SK-OV-3 ovarian,> 100 µM
same,TGI,HCT-15 colon,25 µM and > 100 µM
O=C[C@]12CC=C3OC4OC5(CCCCC5)OC4[C@H]3[C@H]1C(=O)C=CC2=O (stereo partly specified),TGI,MOLT-4 leukemia,15.3 µM
same,TGI,OVCAR-5 ovarian,> 100 µM
same,TGI,HCT-116 colon,38.4 µM
same,TGI,SF-295 CNS,> 100 µM
same,TGI,MALME-3M melanoma,34.4 µM
same,TGI,786-0 renal,21.5 µM
same,TGI,SK-OV-3 ovarian,> 100 µM
same,TGI,HCT-15 colon,43.4 µM
N#CCCN(C1=NN(C(=O)CC(=O)Nc2ccc(Cl)cc2)C(c2ccccc2)C1)c1ccc(Cl)cc1 (stereo unspecified),TGI,MOLT-4 leukemia,> 100 µM
same,TGI,OVCAR-5 ovarian,> 100 µM
same,TGI,HCT-116 colon,> 100 µM
same,TGI,SF-295 CNS,> 100 µM
same,TGI,MALME-3M melanoma,> 100 µM
same,TGI,786-0 renal,> 100 µM
same,TGI,HOP-92 NSCLC,> 100 µM
same,TGI,HCT-15 colon,> 100 µM

# — PubChem BioAssay (NCI)
